Measured values as given in US11214803B2, “Modulators of YAP1 expression” (Ionis Pharmaceuticals, Inc., priority 2019, dated 2022).
Strand notation (5' to 3'): a small letter for the sugar, then the base; units joined by * are phosphorothioate-linked, units joined directly phosphodiester-linked; [ ] holds rarer units or linkages, { } end groups; capitals alone tell only the bases. k = constrained ethyl (cEt); [5mC] = 5-methylcytosine; d = 2'-deoxy (DNA)

Tested on: Yap1 mRNA
Assay: Antisense inhibition of human Yap1 in A-431 cells by cEt gapmers, single dose (Example 3, RTS36584)
Format: cell-based
Procedure, shortened: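 Free uptake, 2,000 nM, ~48 h, A-431 cells. Gapmers: 16-mer 3-10-3 cEt wings, PS backbone, 5-MeC. Readout qRT-PCR, RiboGreen-normalized, % UTC.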

[1] = Table 28, Yap1 mRNA as percent of untreated control, 3-10-3 cEt gapmers targeting SEQ ID NO.: 1, and 2
[2] = Table 8, A-431 cells, 5,000 cells per well, free uptake, 2,000 nM, approximately 48 hours, RTS36584, normalized to RIBOGREEN, Yap1 mRNA relative to untreated control cells
[3] = Table 34, Yap1 mRNA as percent of untreated control, 3-10-3 cEt gapmers targeting SEQ ID NO: 1 and 2, single dose
[4] = Table 35, Yap1 mRNA as percent of untreated control, 3-10-3 cEt gapmers targeting SEQ ID NO: 1 and 2, single dose
[5] = Table 26, Yap1 mRNA by 3-10-3 cEt gapmers targeting SEQ ID NO.: 1, and 2, percent of untreated control
[6] = Table 27, Yap1 mRNA by 3-10-3 cEt gapmers targeting SEQ ID NO.: 1, and 2, percent of untreated control
[7] = Table 13, A-431 cells, 5,000 cells per well, free uptake, 2,000 nM modified oligonucleotide, approx. 48 hours, RTS36584, normalized to RIBOGREEN, Yap1 mRNA relative to untreated control cells

1074350 (antisense kT*kA*kG*dT*d[5mC]*d[5mC]*dA*d[5mC]*dT*dG*dT*d[5mC]*dT*kG*kT*kA) [compound 1074350]
YAP1 (% UTC) [1]: 14 % UTC

958360 (antisense kT*k[5mC]*kG*dA*dA*d[5mC]*dA*dT*dG*d[5mC]*dT*dG*dT*kG*kG*kA) [Compound 958360]
YAP1 (% UTC) [2]: 12 % UTC

958666 (kG*kA*kA*dA*dA*dG*dG*dG*d[5mC]*dA*dA*dT*d[5mC]*kA*kT*kA; antisense) [Compound 958666]
YAP1 (% UTC) (Table 9, A-431 cells, 5,000 cells per well, free uptake, 2,000 nM, approximately 48 hours, RTS36584, normalized to RIBOGREEN, Yap1 mRNA relative to untreated control cells): 52 % UTC

958393 (antisense kG*k[5mC]*k[5mC]*dT*dA*dT*dG*dA*dG*dT*d[5mC]*dA*dA*k[5mC]*k[5mC]*kT) [Compound 958393]
YAP1 (% UTC) [2]: 89 % UTC

958384 (antisense k[5mC]*k[5mC]*kT*dT*d[5mC]*d[5mC]*dT*d[5mC]*dT*dG*d[5mC]*dG*d[5mC]*kG*k[5mC]*k[5mC]) [Compound 958384]
YAP1 (% UTC) [2]: 131 % UTC

1074164 (k[5mC]*k[5mC]*kA*dG*dG*d[5mC]*dG*dA*dG*d[5mC]*dG*dA*dG*kG*kG*k[5mC]; antisense) [compound 1074164]
YAP1 (% UTC) [3]: 135 % UTC

1075125 (k[5mC]*kT*kT*dA*dA*dG*dG*dT*dA*d[5mC]*dA*dA*dG*kG*k[5mC]*kA; antisense) [compound 1075125]
YAP1 (% UTC) [4]: 84 % UTC

1075500 (kT*kA*kA*dA*dT*dT*dA*dA*dG*d[5mC]*d[5mC]*dA*dA*k[5mC]*kA*k[5mC]; antisense) [compound 1075500]
YAP1 (% UTC) [5]: 26 % UTC

1075469 (antisense kT*kG*kA*dT*dA*dT*dA*dA*dT*dG*dA*d[5mC]*d[5mC]*kA*kA*kG) [compound 1075469]
YAP1 (% UTC) [6]: 25 % UTC

1074892 (k[5mC]*kT*kG*dA*dA*dG*dT*dT*dT*dA*dG*d[5mC]*d[5mC]*kT*kG*kA; antisense) [compound 1074892]
YAP1 (% UTC) [5]: 42 % UTC

1075276 (kG*kA*k[5mC]*d[5mC]*dA*dA*dT*dA*d[5mC]*dA*dA*dT*dG*kG*kG*kA; antisense) [compound 1075276]
YAP1 (% UTC) [5]: 78 % UTC

1076181 (kT*kA*kT*dA*dA*dT*dT*dA*dG*d[5mC]*d[5mC]*dA*dA*k[5mC]*k[5mC]*kA; antisense) [compound 1076181]
YAP1 (% UTC) [4]: 26 % UTC

1076237 (kA*k[5mC]*kT*dA*dA*dA*dG*dG*dA*d[5mC]*dA*dA*dA*kG*kG*kT; antisense) [compound 1076237]
YAP1 (% UTC) [6]: 109 % UTC

1076428 (kA*kT*kT*dA*dA*dA*dA*dA*dG*dA*dA*dG*d[5mC]*kA*k[5mC]*kG; antisense) [compound 1076428]
YAP1 (% UTC) [5]: 53 % UTC

958449 (antisense k[5mC]*k[5mC]*kG*dG*dA*d[5mC]*dG*dG*d[5mC]*dG*dG*dG*d[5mC]*k[5mC]*k[5mC]*kT) [Compound 958449]
YAP1 (% UTC) (Table 12, A-431 cells, 5,000 cells per well, free uptake, 2,000 nM modified oligonucleotide, approx. 48 hours, RTS36584, normalized to RIBOGREEN, Yap1 mRNA relative to untreated control cells): 84 % UTC

958543 (kA*k[5mC]*k[5mC]*dT*dT*dA*dT*dA*dG*dT*dA*dT*dT*k[5mC]*kT*kA; antisense) [Compound 958543]
YAP1 (% UTC) (Table 11, A-431 cells, 5,000 cells per well, free uptake, 2,000 nM oligonucleotide, approx. 48 hours, primer probe set RTS36584, Yap1 mRNA normalized to RIBOGREEN, percent of untreated control): 4 % UTC

1075092 (kT*kT*kA*dA*dA*dA*d[5mC]*dA*dA*d[5mC]*dG*dA*dA*kT*kG*kA; antisense) [compound 1075092]
YAP1 (% UTC) [3]: 63 % UTC

958403 (antisense k[5mC]*kA*kG*dT*dT*dT*dA*dT*dG*dT*dA*dG*dT*kA*kG*kT) [Compound 958403]
YAP1 (% UTC) [2]: 5 % UTC

1074740 (kG*kG*kA*d[5mC]*dT*d[5mC]*dT*dT*dA*dG*dG*dT*d[5mC]*kT*k[5mC]*k[5mC]; antisense) [compound 1074740]
YAP1 (% UTC) [3]: 75 % UTC

958817 (kT*kG*k[5mC]*d[5mC]*dA*dG*dG*dT*dA*dA*dG*d[5mC]*d[5mC]*kA*k[5mC]*kA; antisense) [Compound 958817]
YAP1 (% UTC) (Table 10, A-431 cells, 5,000 cells per well, free uptake, 2,000 nM oligonucleotide, approx. 48 hours, primer probe set RTS36584, Yap1 mRNA normalized to RIBOGREEN, percent of untreated control): 30 % UTC

1074702 (antisense kG*kG*kT*dG*dT*dA*dA*dG*dA*d[5mC]*dA*dA*dG*kT*k[5mC]*kT) [compound 1074702]
YAP1 (% UTC) [1]: 16 % UTC

958760 (antisense kA*kG*kT*dA*dA*dT*dA*dG*dA*dT*d[5mC]*dT*dA*k[5mC]*kA*kA) [Compound 958760]
YAP1 (% UTC) [7]: 76 % UTC

958815 (kG*kG*kG*d[5mC]*dG*dA*dG*dG*dA*dG*dA*d[5mC]*dA*kG*kG*kT; antisense) [Compound 958815]
YAP1 (% UTC) [7]: 16 % UTC
